Tests used:
[1] = system: C57BL/6JNarl male mice fed with high fat diet; assay: Blood biochemistry of fatty liver mice; assay type: in vivo; conditions: HFD mice; for aspartate transaminase (AST) and alanine transaminase (ALT) compared with Group 2: 2 mg/kg, statement in words; for ALT / AST / GLU / T-CHO / TG: serum, 2 mg/kg intraperitoneal, six injections in two weeks, mean ± SD, six mice
Experimental: (§1) 24 C57BL/6JNarl male mice at 5 weeks of age were purchased from the National Laboratory Animal Center and housed in the laboratory animal room of the Far Eastern Memorial Hospital at a constant temperature of 22° C., 55% humidity, automatic air regulation (ventilation rate of 12 times per hour), automatic light control (12:12 hour light/dark cycle), and provided with free access to water and chow diet D12450B (Research Diets, Inc.) for two weeks.
(§2) Then the 24 mice (7 weeks of age) were randomly divided into four groups, each containing six mice—Group 1 is the chow diet (CD) control group fed with chow diet D12450B; Group 2 is the high fat diet (HFD) group fed with high fat diet (i.e., modified D12492); Group 3 is the HFD+Compound A treatment group provided with high fat diet and Compound A; and Group 4 is the HFD+Compound B treatment group provided with high fat diet and Compound B.
(§3) Group 1 was fed with chow diet for 18 weeks, followed by 2 more weeks of chow diet, and then given an intraperitoneal injection of saline, without receiving Compound A or Compound B. Group 2, the HFD group, was fed with high fat diet for 18 weeks, followed by 2 more weeks of high fat diet, and then given an intraperitoneal injection of saline, without receiving Compound A or Compound B. Group 3, the HFD+Compound A treatment group, was fed with high fat diet for 18 weeks and then given an intraperitoneal injection of 2 mg/kg of Compound A per mouse, three times a week (once every one or two days) for two weeks, a total of six injections of Compound A. Group 4, the HFD+Compound B treatment group, was fed with high fat diet for 18 weeks and then given an intraperitoneal injection of 2 mg/kg of Compound B per mouse, three times a week (once every one or two days) for two weeks, a total of six injections of Compound B. After completion of feeding and treatment described above, the mice were weighed and euthanized with CO2, and their blood and liver tissue specimens were collected for analysis.
Blood samples from mice of each group in Example 4 were tested for measurement of serum aspartate transaminase (AST), alanine transaminase (ALT), total cholesterol (T-CHO), triglyceride (TG) and glucose (GLU). AST and ALT are common measures of liver function.

[2] = system: C57BL/6JNarl male mice fed with high fat diet; assay: Fatty liver animal test: liver appearance and liver weight; assay type: in vivo; conditions: HFD mice, 2 mg/kg intraperitoneal, three times a week for two weeks; compared with Group 2 (HFD)
Experimental: as §1, §2, §3

HepG2 cells = assay: Oleic acid-induced in vitro fatty liver cell model, lipid droplets by Oil Red O staining quantified by Image J; assay type: cell-based, human; conditions: for lipid droplet accumulation: HepG2, 10 nM compound for 24 hours
Experimental: Human hepatocellular carcinoma cell line HepG2 was cultured in Dulbecco's modified Eagle's medium (DMEM, containing 4,500 mg/L D-glucose and L-glutamine) supplemented with 10% fetal bovine serum and 1% penicillin/streptomycin at 37° C. incubator with 5% CO2. To induce in vitro fatty liver cell model on HepG2 with oleic acid-bovine serum albumin complex (Sigma-Aldrich, USA), HepG2 cells were cultured in a 24-well plate at a cell volume of 8×10^4; after 18 to 24 hours when a 70% confluence of cell growth has reached, 0.1 mM of oleic acid was added for culturing for 24 hours. After the replacement of culture medium containing oleic acid, 0.5 μg/mL, 1 μg/mL, 2.5 μg/mL, 5 μg/mL and 10 μg/mL of Compound A were added to DMEM containing 2% fetal bovine serum for culturing for 8 hours; each experimental group performed four repetitions.
Oil Red O (ORO) staining was used to confirm the level of lipid droplets, e.g., amount of red particles, in HepG2. After 24 hours of oleic acid treatment, HepG2 cells were fixed with 4% paraformaldehyde for 15 minutes, followed by phosphate-buffered saline (PBS) washing for three times and then ORO staining for 1 hour. After staining, the cells were washed with PBS for three times, followed by hematoxylin staining for 5 minutes. The coverslip was reversely placed on the slide and sealed with glycerine for observation with optical microscope; images were taken and saved as electronic files.
Intracellular lipid droplets were quantified by Image J (National Institutes of Health, NIH) after adjustment to a proper threshold value. Images with at least 20 cells were analyzed and quantified by Image J with the “analyze particles” functions in threshold single sections with size (pixel^2) setting from 0.1 to 10.
(§4) Similar to Example 1, to induce in vitro fatty liver cell model on HepG2 with oleic acid, HepG2 cells were cultured in a 24-well plate at a cell volume of 8×10^4 and added with 0.1 mM of oleic acid for 24-hour culturing. After the replacement of culture medium containing oleic acid, 10 μg/mL of Compound A was added to DMEM for culturing for 4 hours, 8 hours, 16 hours, and 24 hours; each time point performed four repetitions. ORO staining was used to confirm the level of lipid droplets in HepG2, and their number and size were quantified by Image J.
Compound C, which is a derivative of Compound A, was also tested to further investigate the effect of glucosamine peptide compounds defined herein, including Compound A and its derivatives, on the formation of intracellular lipid droplets. Similar to Example 2, to induce in vitro fatty liver cell model on HepG2 with oleic acid, HepG2 cells were cultured in a 24-well plate at a cell volume of 8×10^4 and added with 0.1 mM of oleic acid for 24-hour culturing. After the replacement of culture medium containing oleic acid, 10 nM of Compound A and 10 nM of Compound C were individually added to different DMEMs for culturing for 24 hours, and four repetitions were performed for both Compound A and Compound C. ORO staining was used to confirm the level of lipid droplets in HepG2, and their number and size were quantified by Image J.

[3] = system: C57BL/6JNarl male mice fed with high fat diet; assay: Analysis of fat amount in liver tissue (H&E stain, Image J); assay type: in vivo; conditions: HFD mice; for percentage of area of lipid droplets relative to the total field of view in liver tissue: 2 mg/kg intraperitoneal, compared with Group 2 (HFD)
Experimental: as §1
as §2, with “B. […]” for “B.”
Image J was used to quantify the percentage of area of lipid droplets relative to the total field of view in mice liver tissues (FIG. 5E). […]

HuH-7 cells = assay: Oleic acid-induced in vitro fatty liver cell model, lipid droplets by Oil Red O staining quantified by Image J; assay type: cell-based, human
Experimental: as §4, with “Another human hepatocellular carcinoma cell line HuH-7 was used to test the temporal effect of Compound A to further confirm the effect of Compound A on intracellular lipid droplets. Similar” for “Similar”, “2,” for “1,”, “HuH-7” for “HepG2”, “HuH-7,” for “HepG2,”

[4] = system: C57BL/6JNarl male mice fed with high fat diet; assay: Analysis of liver tissue fibrosis (Masson's Trichrome, collagen proportionate area); assay type: in vivo; conditions: HFD mice; for percentage of collagen proportionate area (CPA) in liver tissue: 2 mg/kg intraperitoneal, compared with Group 2 (HFD)
Experimental: as §1
as §2, with “B. […]” for “B.”
Nuance multispectral image analysis module (PerknElmer, Inc) was used to quantify the collagen proportionate area (CPA), as shown in FIG. 6E. […]

## CC(=O)N[C@@H]1[C@@H](O[C@H](C)C(=O)N[C@@H](C)C(=O)N[C@H](CCC(=O)O)C(N)=O)[C@H](O)[C@@H](CO)O[C@H]1O [Compound A]
[1]
  aspartate transaminase (AST) and alanine transaminase (ALT) compared with Group 2: significantly lower
  ALT: 240.5 ± 83.1 U/L
  AST: 200.0 ± 68.4 U/L
  GLU: 287.2 ± 60.0 mg/dL
  T-CHO: 225.3 ± 53.2 mg/dL
  TG: 30.1 ± 9.8 mg/dL
[2]
  liver appearance (size): smaller livers than Group 2
HepG2 cells
  lipid droplet accumulation: reduced significantly
HepG2 cells; HepG2, 10 μg/mL
  treatment time after which significant reduction of lipid droplets is observed: 4 h
  treatment time at which maximum reduction of lipid droplets occurs: 8 h
HepG2 cells; HepG2, 10 μg/mL compound for 4, 8, 16 and 24 hours
  number and size of lipid droplets: decrease with the increase of treatment time of Compound A in a time-dependent manner
HepG2 cells; HepG2, 0.1 mM oleic acid 24 h, then 0.5-10 μg/mL compound for 8 hours
  number and size of lipid droplets: decrease with the increase of Compound A concentration in a dose-dependent manner
[3]
  percentage of area of lipid droplets relative to the total field of view in liver tissue: much lower percentage of area of lipid droplets relative to the total field of view than Group 2
HuH-7 cells; HuH-7, 10 μg/mL
  treatment time after which significant reduction of lipid droplets is observed: 4 h
  treatment time at which maximum reduction of lipid droplets occurs: 16 h
HuH-7 cells; HuH-7, 10 μg/mL compound for 4, 8, 16 and 24 hours
  number and size of lipid droplets: decrease with the increase of treatment time of Compound A in a time-dependent manner
[4]
  percentage of collagen proportionate area (CPA) in liver tissue: much lower percentage of collagen proportionate area than Group 2

## CCCCCCCCCCCCCCCC(=O)OCC(COP(=O)(O)OCCNC(=O)[C@H](C)NC(=O)CC[C@@H](NC(=O)[C@H](C)NC(=O)C(C)O[C@H]1[C@H](O)[C@@H](CO)OC(O)[C@@H]1NC(C)=O)C(N)=O)OC(=O)CCCCCCCCCCCCCCC (stereo partly shown) [Compound B]
[1]
  aspartate transaminase (AST) and alanine transaminase (ALT) compared with Group 2: significantly lower
  ALT: 185.4 ± 83.1 U/L
  AST: 191.3 ± 74.0 U/L
  GLU: 274.4 ± 31.0 mg/dL
  T-CHO: 234.0 ± 33.6 mg/dL
  TG: 42.2 ± 18.9 mg/dL
[2]
  average liver weight: less than Group 2
  liver appearance (size): smaller livers than Group 2
  ratio of liver weight to body weight (average liver weight percentage): smaller average liver weight percentage than Group 2
[3]
  percentage of area of lipid droplets relative to the total field of view in liver tissue: much lower percentage of area of lipid droplets relative to the total field of view than Group 2
[3]; Group 4 compared with Group 3
  alleviating accumulation of hepatic fat induced by high fat diet, comparison of the compounds: more effective than Compound A
[4]
  percentage of collagen proportionate area (CPA) in liver tissue: much lower percentage of collagen proportionate area than Group 2
[4]; Group 4 compared with Group 3
  alleviating liver fibrosis complicated with fatty liver, comparison of the compounds: more effective than Compound A

## CCCCOC(=O)[C@@H](CCC(N)=O)NC(=O)[C@H](C)NC(=O)[C@@H](C)OC1C(NC(C)=O)[C@@H](O)OC(CO)[C@H]1O (stereo partly shown) [Compound C]
HepG2 cells
  lipid droplet accumulation: reduced significantly
